The target in assay [1] is recombinant DYRK1A kinase (Homo sapiens, UniProt Q13627). As to the kind of experiment: DYRK1A kinase assay (Ser/Thr 18 peptide Z-lyte FRET). The settings on record: DYRK1A kinase activity; 15 μM ATP, 4 μM Ser/Thr peptide 18, one hour at room temperature. The format is biochemical. In short, it runs like this: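 Recombinant DYRK1A at 0.25 μg/mL was incubated 1 h at room temperature with 15 μM ATP, 4 μM Ser/Thr 18 peptide and compound, in duplicate, 11-point series from 10 μM. Phosphorylation was read by Z-lyte FRET after 1 h protease development, as the coumarin/fluorescein emission ratio converted to % phosphorylation. IC50 by non-linear regression.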

The test system of assay [2] is Tau phosphorylation at Thr212 (pThr212). As to the kind of experiment: Tau phosphorylation assay, phosphoTau (Thr212) AlphaLISA in HEK293T cells transfected with DYRK1A and MAPT. The format is cell-based. The conditions noted are these: HEK-293T; HEK293T cells transfected with human DYRK1A and MAPT; compound treatment 18-24 hours; read-out: pTau (Thr212) EC50. As for the experimental part: Representative compounds were screened using the assay procedure for tau phosphorylation activity described below.
HEK293T cells (ATCC, CRL3216) cultured in DMEM (Thermo Fisher Scientific, 10566024) supplemented with 10% FBS (Corning, 35-011-CV) and Penicillin/Streptomycin (Thermo Fisher Scientific, 15140163) were seeded in a 75 cm^2 flask at 8.1×10^6 cells/flask. The HEK293T cells were then transiently transfected with 5 μg DYRK1A (NM_001396) human untagged clone (OriGene, SC314641) and 2.5 μg MAPT (441 a.a. Tau gene) (NM_005910) human untagged clone (OriGene, TP313312) using Lipofectamine 3000 (Thermo Fisher Scientific, L30000015) and incubated for 20-30 hours in a humidified incubator at 37° C. and 5% CO2. Post-incubation, HEK293T cells transfected with the DYRK1A and MAPT expression vectors were harvested and seeded in BioCoat poly-D lysine coated 96-well plates (Corning, 354461) at 3×10^4 cells/well.
The above synthesized compounds were screened using the cell assay procedure to assess decreased Tau phosphorylation at Thr212 (pThr212) described below.
Each compound was dissolved in DMSO (Sigma-Aldrich, D8418-100 mL) as a 10 mM stock. 10 mM stocks were serially diluted 1:3, 10-point dose-response curve and added to the cells with a final concentration ranging from 20 μM to 1.1 nM. Cell were treated with compounds in duplicate and incubated for 18-24 hours in a humidified incubator at 37° C. and 5% CO2.
Following the overnight compound treatment, cells were lysed with 1× Alpha Surefire Ultra Lysis Buffer (Perkin Elmer, ALSU-LB-100ML) complemented with 1× Halt Phosphatase Inhibitor Cocktail (Thermo Fisher Scientific, 78427) and 1× Halt Protease Inhibitor Cocktail (Thermo Fisher Scientific, 78438). Lysates were spun down at 12,000 g for 10 min to remove any cellular debris and 5 μL of lysates were dispensed into a 384-well Opti-Plate (Perkin Elmer, 6007290) for the measurement of Tau phosphorylation in the phosphoTau (Thr212) AlphaLISA assay. Donor antibody, biotinylated HT7Tau (Thermo Fisher Scientific, MN1000B), and acceptor antibody, pThr212Tau (Thermo Fisher Scientific, 44740G) were both added to the cell lysates at a final concentration of 3 nM and incubated for 1 hour at room temperature. Following incubation of the lysates with the donor and acceptor antibodies, anti-rabbit IgG(Fc specific) AlphaLISA acceptor beads (Perkin Elmer, AL104C) were added at a 10 ug/mL final concentration and incubated for 1 hour at room temperature protected from light. Lastly, AlphaScreen streptavidin donor beads (PerkinElmer, 6760002) were added at 40 ug/mL final concentration and incubated for 1 hour at room temperature protected from light. Plates were read at Ex=[…], and Em=615 nm on the EnVision Multilabel Plate Reader (Perkin Elmer) phospho-Tau (Thr212) AlphaLISA signal was used to plot, draw the curve fitting, and determine each compound's EC50 in Prism (GraphPad).
(In general: In Alpha technology, singlet oxygen from a donor bead excites a nearby acceptor bead.)

As to `Cc1nc2ncc(-c3c[nH]c4ncccc34)cc2n1C(C)C` [Compound 25, 1-Isopropyl-2-methyl-6-(1H-pyrrolo[2,3-b]pyridin-3-yl)-1H-imidazo[4,5-b]pyridine], the EC50 in assay [1] stood at 1 nM; in assay [2] it was 16 nM.
As to `Cn1cc(-c2cnn3ccc(-c4c[nH]c5ncccc45)cc23)cn1` [Compound 37, 3-(3-(1-Methyl-1H-pyrazol-4-yl)pyrazolo[1,5-a]pyridin-5-yl)-1H-pyrrolo[2,3-b]pyridine], the EC50 in assay [1] stood at 1 nM; in assay [2] it was 6 nM.
On the same counts, the results for `CN1CCC(Nc2cnc3ccc(-c4c[nH]c5ncccc45)cc3n2)CC1` [Compound 92, N-(1-Methylpiperidin-4-yl)-7-(1H-pyrrolo[2,3-b]pyridin-3-yl) quinoxalin-2-amine] are 5 nM and 31 nM.
Turning to `O=C(c1cnn2ccc(-c3c[nH]c4ncccc34)cc12)N1CCC(N2CCOCC2)CC1` [Compound 107, (5-(1H-Pyrrolo[2,3-b]pyridin-3-yl)pyrazolo[1,5-a]pyridin-3-yl)(4-morpholinopiperidin-1-yl)methanone], the EC50 in assay [1] was determined as 8 nM; in assay [2] it was 396 nM.
For `CN1CCN(C(=O)c2cnn3ccc(-c4c[nH]c5ncc(Cl)cc45)cc23)CC1` [Compound 215, (5-(5-Chloro-1H-pyrrolo[2,3-b]pyridin-3-yl)pyrazolo[1,5-a]pyridin-3-yl)(4-methylpiperazin-1-yl)methanone], the EC50 stood at 12 nM in assay [1] and 258 nM in assay [2].
On the same counts, the results for `CN1CCN(c2ccc(NC(=O)c3cnc4[nH]cc(-c5ccc6nccnc6c5)c4c3)cn2)CC1` [Compound 817, N-(6-(4-Methylpiperazin-1-yl)pyridin-3-yl)-3-(quinoxalin-6-yl)-1H-pyrrolo[2,3-b]pyridine-5-carboxamide] are 8 nM and 210 nM.
With `c1cncc(-c2cnc3[nH]cc(-c4ccc5ncccc5c4)c3c2)c1` [Compound 1194, 6-(5-(Pyridin-3-yl)-1H-pyrrolo[2,3-b]pyridin-3-yl)quinoline], the EC50 in assay [2] is 2 nM.
Regarding `Cc1ccc2c(-c3ccc4ncccc4c3)c[nH]c2n1` [Compound 1488, 6-(6-Methyl-1H-pyrrolo[2,3-b]pyridin-3-yl)quinoline], the EC50 in assay [1] was 2 nM; in assay [2], 39 nM.
As to `c1cn2cc(-c3c[nH]c4nc(C5CC5)ccc34)ccc2n1` [Compound 1498, 6-(6-Cyclopropyl-1H-pyrrolo[2,3-b]pyridin-3-yl)imidazo[1,2-a] pyridine], the EC50 in assay [1] was 47 nM; in assay [2] it was 441 nM.
For the compound `Cc1nc2c(F)cc(-c3c[nH]c4nc(C5CC5)ccc34)cc2n1C1CCN(C)CC1` [Compound 1502, 6-(6-cyclopropyl-1H-pyrrolo[2,3-b]pyridin-3-yl)-4-fluoro-2-methyl-1-(1-methylpiperidin-4-yl)-1H-benzo[d]imidazole], the EC50 in assay [1] amounted to 5 nM; in assay [2], 936 nM.
On to `c1cn2nc(-c3c[nH]c4nc(C5CC5)ccc34)ccc2n1` [Compound 1508, 6-(6-Cyclopropyl-1H-pyrrolo[2,3-b]pyridin-3-yl)imidazo[1,2-b] pyridazine], for which the EC50 in assay [1] was determined as 29 nM; in assay [2], 321 nM.
The corresponding values for `C[C@@H](NC(=O)c1cnn2ccc(-c3c[nH]c4nc(C5CC5)ccc34)cc12)C(F)(F)F` [Compound 1513, (R)-5-(6-Cyclopropyl-1H-pyrrolo[2,3-b]pyridin-3-yl)-N-(1,1,1-trifluoropropan-2-yl)pyrazolo[1,5-a]pyridine-3-carboxamide] are 91 nM and 374 nM.
Regarding `CN1CCC(NC(=O)c2cnn3ccc(-c4c[nH]c5nc(C6CC6)ccc45)cc23)CC1` [Compound 1514, 5-(6-Cyclopropyl-1H-pyrrolo[2,3-b]pyridin-3-yl)-N-(1-methylpiperidin-4-yl)pyrazolo[1,5-a]pyridine-3-carboxamide], the figures for the EC50 in assay [1] and in assay [2] were 5 nM and 82 nM, respectively.
For the compound `O=C1NCc2cc(-c3c[nH]c4nc(C5CC5)ccc34)ccc21` [Compound 1522, 5-(6-Cyclopropyl-1H-pyrrolo[2,3-b]pyridin-3-yl)isoindolin-1-one], the EC50 in assay [1] worked out at 12 nM; in assay [2], 25 nM.
Consider `O=C1NCCc2cc(-c3c[nH]c4nc(C5CC5)ccc34)ccc21` [Compound 1526, 6-(6-Cyclopropyl-1H-pyrrolo[2,3-b]pyridin-3-yl)-3,4-dihydroisoquinolin-1(2H)-one], for which the EC50 was 10 nM in assay [1] and 73 nM in assay [2].
For the compound `O=C1NCCOc2cc(-c3c[nH]c4nc(C5CC5)ccc34)ccc21` [Compound 1529, 8-(6-Cyclopropyl-1H-pyrrolo[2,3-b]pyridin-3-yl)-3,4-dihydrobenzo[f][1,4] oxazepin-5(2H)-one], the EC50 in assay [1] is 28 nM; in assay [2], 413 nM.
With `c1cnc2ccc(-c3c[nH]c4nc(C5CC5)ccc34)cc2c1` [Compound 1530, 6-(6-Cyclopropyl-1H-pyrrolo[2,3-b]pyridin-3-yl)quinoline], the EC50 was 24 nM in assay [1] and 393 nM in assay [2].
On the same counts, the results for `CN1CCC(NC(=O)c2cnn3ccc(-c4c[nH]c5nc(C6CCCC6)ccc45)cc23)CC1` [Compound 1598, 5-(6-Cyclopentyl-1H-pyrrolo[2,3-b]pyridin-3-yl)-N-(1-methylpiperidin-4-yl)pyrazolo[1,5-a]pyridine-3-carboxamide] are 4 nM and 132 nM.
Regarding `CN1C2CCC1CN(C(=O)c1cnc3[nH]cc(-c4ccn5nccc5c4)c3c1)C2` [Compound 2049, (8-Methyl-3,8-diazabicyclo[3.2.1]octan-3-yl)(3-(pyrazolo[1,5-a]pyridin-5-yl)-1H-pyrrolo[2,3-b]pyridin-5-yl)methanone], the EC50 in assay [1] worked out at 45 nM.
As for `CN1CCN(C(=O)c2cnn3ccc(-c4c[nH]c5ncc(C(F)(F)F)cc45)cc23)CC1` [Compound 2050, (4-Methylpiperazin-1-yl)(5-(5-(trifluoromethyl)-1H-pyrrolo[2,3-b]pyridin-3-yl)pyrazolo[1,5-a]pyridin-3-yl)methanone], the EC50 in assay [1] was found to be 159 nM.
In the case of `CN1CCN(c2ccc(CNc3ccnc4[nH]cc(-c5ccc6ncccc6c5)c34)cn2)CC1` [Compound 2051, N-((6-(4-Methylpiperazin-1-yl)pyridin-3-yl)methyl)-3-(quinolin-6-yl)-1H-pyrrolo[2,3-b]pyridin-4-amine], the EC50 in assay [1] turned out to be 37 nM.
In the case of `c1cnc2ccc(-c3c[nH]c4nccc(NCc5ccc(-n6ccnc6)nc5)c34)cc2c1` [Compound 2052, N-((6-(1H-Imidazol-1-yl)pyridin-3-yl)methyl)-3-(quinolin-6-yl)-1H-pyrrolo[2,3-b]pyridin-4-amine], the EC50 in assay [1] stood at 34 nM.
Turning to `c1cnc2ccc(-c3c[nH]c4nc(OCC5CC5)ccc34)cc2c1` [Compound 2053, 6-(6-(Cyclopropylmethoxy)-1H-pyrrolo[2,3-b]pyridin-3-yl)quinoline], in assay [1], the EC50 is 76 nM.
As to `c1cnc2ccc(-c3c[nH]c4nc(-c5cncs5)ccc34)cc2c1` [Compound 2055, 5-(3-(quinolin-6-yl)-1H-pyrrolo[2,3-b]pyridin-6-yl)thiazole], in assay [1], the EC50 is 37 nM.
As to `CN(CC(F)F)C(=O)c1cnc2ccc(-c3c[nH]c4nc(C5CC5)ccc34)cn12` [Compound 2056, 6-(6-cyclopropyl-1H-pyrrolo[2,3-b]pyridin-3-yl)-N-(2,2-difluoroethyl)-N-methylimidazo[1,2-a]pyridine-3-carboxamide], the EC50 in assay [1] was determined as 5 nM.

By EC50 is commonly meant the concentration at which the effect is half-maximal.

The record behind these values is patent US20230192686A1, “1H-PYRROLO[2,3-B]PYRIDINES AND PREPARATION AND USES THEREOF” (BioSplice Therapeutics, Inc., priority 2021, published 2023).
